Like-named read-outs stand apart in the source and are kept apart here.
Assays:
[1] = system: mammary carcinoma line MCF-7; assay: Tumor cell growth inhibition, sulforhodamine B (SRB) assay; assay type: cell-based, human; details: MCF7; three days incubation, serum containing medium
[2] = system: large-cell lung carcinoma xenograft line LXFL 529 L; assay: as above; assay type: cell-based, human; details: LXFL529L; three days incubation, serum containing medium
[3] = Solubility; assay type: physicochemical
[4] = system: LXFL 529L cells; assay: Cellular uptake into LXFL 529L cells; details: for distribution cellular organelles / distribution cytosol: 2 hours incubation
Protocol: The compounds of Examples 1, 6 and 8 and Comparative Examples 1 and 2 were investigated with respect to their ability to penetrate LXFL 529L cells having the passage numbers P23 to P39. The amounts of the substances taken up by the cells are given depending on the concentration of the substance within the incubation medium. The time of incubation was 2 hours in all of the experiments. Furthermore, the distribution of the substance which was taken up by the cells in the cytosol and the cellular organelles (particular) was estimated and is given in the intermediate column of Table 2. Tumor cell growth inhibition was determined by the sulfo-rhodamine B assay (SRB assay) according to Skehan et al., J. Natl. Cancer Institute 82, pages 1107-1112 (1990). Incubation was conducted for three days in serum containing medium. Tumor cell lines tested were a large-cell lung carcinoma xenograft line LXFL 529 L and the mammary carcinoma line MCF-7.

[5] = system: MCF7X (mammary); assay: Colony-forming assay; assay type: cell-based, human; details: for IC50: read-out: IC50 colony formation
[6] = system: MEXF515LX (melanoma); assay: Colony-forming assay; assay type: cell-based, human; details: for IC50: read-out: IC50 colony formation
[7] = system: LXFA289 (lung adenocarcinoma); assay: Colony-forming assay; assay type: cell-based, human; details: for IC50: read-out: IC50 colony formation
[8] = system: CXF280 (colon); assay: Colony-forming assay; assay type: cell-based, human; details: for IC50: read-out: IC50 colony formation
[9] = system: OVXF899 (ovarian)
Protocol: The anti-tumor activity of the compounds was evaluated via a colony-forming-assay as described e.g. by D. P. Berger et al. in Annals of Oncology 1, pages 333-341 (1 990), “The clonongenic assay with human tumor xenografts, evaluation, predictive values and application for drug screening”.
The experiments were conducted using various tumor cell lines, in particular mammary carcinoma (MAXF), lung adenocarcinoma (LXFA), large-cell lung carcinoma (LXFL), small-cell lung carcinoma (LXFS), colon carcinoma (CXF), melanoma (MEXF), pancreatic carcinoma (PAXF), renal carcinoma (RXF), ovarian carcinoma (OVXF) and bladder carcinoma (BXF).

[10] = system: LXFL529 (lung large-cell); assay: Colony-forming assay; assay type: cell-based, human
[11] = system: PAXF546 (pancreatic); assay: Colony-forming assay; assay type: cell-based, human; details: for IC50: read-out: IC50 colony formation
[12] = system: human tumor xenograft LXFL 529; assay: In vivo testing in nude mice bearing subcutaneous tumor xenograft
Protocol: Compound of Examples 1, 4, 6, 8, 9 and 10 were subjected to in vivo testing in nude mice bearing subcutaneously growing human tumor xenograft LXFL 529. The indigoid bisindole derivatives were applied intraperitoneally to the animals in doses and according to the schedule as described in Table 4.
The experiments were run for 21 or 28 days. Anti-tumor activity was evaluated comparing the median tumor volume relative to control, expressed as %T/C, wherein T is the test group and C the vehicle control group. In Table 4, anti-tumor activity is given according to an activity rate scale.

[13] = system: HT29X (colon); assay: Colony-forming assay; assay type: cell-based, human; details: for IC50: read-out: IC50 colony formation
[14] = system: MX1 (mammary); assay: Colony-forming assay; assay type: cell-based, human; details: for IC50: read-out: IC50 colony formation
[15] = system: PAXF736 (pancreatic); assay: Colony-forming assay; assay type: cell-based, human; details: for IC50: read-out: IC50 colony formation
[16] = system: MEXF989 (melanoma); assay: Colony-forming assay; assay type: cell-based, human
[17] = system: OVXF1355 (ovarian); assay: Colony-forming assay; assay type: cell-based, human
[18] = system: LXFS650 (lung small-cell); assay: Colony-forming assay; assay type: cell-based, human
[19] = system: BXF1301 (bladder); assay: Colony-forming assay; assay type: cell-based, human; details: for IC50: read-out: IC50 colony formation
[20] = system: LXFA526 (lung adenocarcinoma); assay: Colony-forming assay; assay type: cell-based, human
[21] = system: MEXF514 (melanoma); assay: Colony-forming assay; assay type: cell-based, human; details: for IC50: read-out: IC50 colony formation
[22] = system: 1220 (renal); assay: Colony-forming assay; assay type: cell-based, human; details: renal 1220
[23] = read-out: IC50 colony formation
[24] = Homo sapiens, read-out: IC50 colony formation
[25] = type printed pancreatic, xenograft printed HT29X
[26] = concentration of incubation 10 μM
[27] = concentration of incubation 20 μM

| IC50 [1] [nM] | IC50 [2] [nM] | uptake by the tumor cells (in words) ([4]; LXFL 529L cells) | IC50 [5] [nM] | IC50 [6] [nM] | IC50 [7] [nM] | IC50 [8] [nM] | Compound | IC70 colony formation [5] [nM] | IC70 colony formation [6] [nM] | IC70 colony formation [7] [nM] | IC70 colony formation [8] [nM] | IC70 colony formation [10] [nM] | IC70 colony formation [11] [nM] | activity rating ([12]; 100 mg/kg/day i.p., days 1-5) | activity rating ([12]; 300 mg/kg/day i.p., days 1-5) | IC70 colony formation ([13]; colon HT29X) [nM] | IC70 colony formation [14] [nM] | IC70 colony formation [15] [nM] | IC70 colony formation [16] [nM] | IC70 colony formation [19] [nM] | other results |
| --- | --- | --- | --- | --- | --- | --- | --- | --- | --- | --- | --- | --- | --- | --- | --- | --- | --- | --- | --- | --- | --- |
| > 100000 | > 100000 | essentially not taken up by the cells |  |  |  |  | O=C1Nc2ccc(S(=O)(=O)O)cc2C1=C1Nc2ccccc2C1=NO [Comparative Example 2, Indirubin-3′-oxime-5-sulfonic acid, reference compound] |  |  |  |  |  |  |  |  |  |  |  |  |  | solubility in physiological solutions (in words) [3]: well soluble in physiological solutions |
|  |  |  | 600 | < 100 | 1100 | 12000 | O=C1Nc2ccc(S(=O)(=O)NCCO)cc2C1=C1Nc2ccccc2C1=O [Example 13, Indirubin-5-sulfone(2-hydroxyethyl)amide] | 2100 | 400 | 2600 | 17300 | 5900 |  |  |  |  |  |  |  |  | IC70 colony formation [9]: 400 nM; IC50 [9, 23]: 300 nM; IC50 [10, 23]: 3400 nM |
|  |  |  |  |  |  |  | O=C1Nc2ccccc2/C1=C1\C(=O)Nc2ccccc21 [Example 10, Isoindigo] | <1000 |  |  | <1000 | 4500 | <1000 | − (inactive T/C > 50%) | + (tumor inhibition T/C > 25-50%) | <1000 | <1000 | <1000 | <1000 | 8200 | IC50 ([5]; Homo sapiens): < 1000 nM; IC50 ([11]; Homo sapiens): < 1000 nM; activity rating ([12]; 30 mg/kg/day i.p., days 1-5): − (inactive T/C > 50%); IC50 ([13]; Homo sapiens, colon HT29X): < 1000 nM; IC50 ([8]; Homo sapiens): < 1000 nM; IC50 ([14]; Homo sapiens): < 1000 nM; IC50 ([15]; Homo sapiens): < 1000 nM; IC50 ([16]; Homo sapiens, MEXF 989, read-out: IC50 colony formation): < 1000 nM; IC50 ([10]; Homo sapiens, LXFL 529, read-out: IC50 colony formation): 2600 nM; IC70 colony formation [17]: <1000 nM; IC50 [17, 24]: < 1000 nM; IC70 colony formation [18]: <1000 nM; IC50 [18, 24]: < 1000 nM; IC50 ([19]; Homo sapiens): 6000 nM |
|  |  |  | < 1000 |  |  |  | O=C1Nc2ccc(Br)cc2/C1=C1/Nc2ccccc2C1=O [Example 3, 5-Bromoindirubin] | <1000 |  |  |  |  |  |  |  | 17300 |  |  |  |  | IC50 ([13]; colon HT29X): < 1000 nM; IC70 colony formation [13, 25]: >30000 nM; IC50 [13, 25]: 13200 nM; IC70 colony formation [20]: 14400 nM; IC50 [20, 23]: 2300 nM; IC70 colony formation [21]: 8000 nM; IC50 [21]: 3400 nM |
| 3300 ± 400 | 3000 ± 500 | taken up by the tumor cells |  | 2800 | 900 | 8000 | O=C1Nc2ccccc2/C1=C1/Nc2ccccc2/C1=N\O [Example 8, Indirubin-3′-oxime] |  | 5700 | 3400 | 12600 |  |  |  |  |  | 9200 |  | 2600 | 16100 | activity rating ([12]; 100 mg/kg/day i.p., days 1, 4, 8, 11, 15, 18, 22): − (inactive T/C > 50%); activity rating ([12]; 300 mg/kg/day i.p., days 1, 4, 8, 11, 15, 18, 22): − (inactive T/C > 50%); IC50 [14]: 7700 nM; IC50 [16, 23]: 1000 nM; IC50 [19]: 10600 nM; ability to penetrate the cellular membrane / uptake compared to indirubin (Example 1) (in words) ([4]; LXFL 529L cells): slightly improved; distribution cellular organelles [4, 26]: 57 ± 14.1%; distribution cytosol [4, 26]: 43 ± 14.1%; distribution cellular organelles [4, 27]: 56 ± 15.6%; distribution cytosol [4, 27]: 44 ± 15.6% |
|  |  |  | < 1000 |  |  |  | O=C1Nc2ccc(Cl)cc2/C1=C1/Nc2ccccc2C1=O [Example 4, 5-Chloroindirubin] | <1000 |  |  |  |  | >30000 | ++ (tumor stasis T/C ≦ 25%) | ++ (tumor stasis T/C ≦ 25%) | 17300 |  | 8000 |  |  | IC50 [11]: 4600 nM; tumor growth (relative tumor volume) compared to the vehicle control (in words) ([12]; LXFL 529/17, i.p., nude mice, FIG. 1): significantly inhibited the tumor growth; IC50 ([13]; colon HT29X): < 1000 nM; IC70 colony formation [22]: 24700 nM; IC50 [22, 23]: 11200 nM; IC50 [15]: 3200 nM; IC70 colony formation [21]: 26000 nM; IC50 [21]: 17100 nM |
